The values that follow come from patent US20120258971A1, “THERAPEUTIC AGENT FOR CHRONIC PAIN” (OTSUKA PHARMACEUTICAL CO., LTD., priority 2009, published 2012).

This test relates to chronic occipital-cervical pain. Nature of the test: Pain intensity (numerical rating scale, NRS) in a chronic pain patient during drug treatment. The class given is in vivo, human. As to conditions: for Effect on pain of the chronic pain patient (in words): single chronic pain patient, oral administration, overall conclusion. As to the method:
Morphine, fluvoxamine, aripiprazole, and other drugs were administered for about 11 months to a patient who was diagnosed as a chronic pain sufferer with chronic occipital-cervical pain that had continued for ten years or more. The intensity of the pain in the patients' occipital-cervical region (neck) was evaluated over time.
The intensity of pain was evaluated using a numerical rating scale (NRS) in which pain was orally reported on an 11-step scale (0 to 10). This evaluation method numerically expresses (quantifies) the degree of pain on a scale of 0 (no pain) to 10 (worst conceivable pain). This method provides a good reflection of the degree of pain of a patient before and after treatment.
From the 4th week of the first month, in addition to morphine, oral administration of fluvoxamine (Depromel tablets; produced by Meiji Seika Pharma Co., Ltd.) in a dose of 50 mg/day was started.
Then, from the 4th week of the 4th month, aripiprazole (Abilify tablets; produced by Otsuka Pharmaceutical Co., Ltd.) was orally administered in a dose of 3 mg/day. […] Furthermore, even when the administration of morphine was stopped from the 8th month, the NRS value remained at 0.
Thereafter, when the dose of aripiprazole (Abilify tablets; produced by Otsuka Pharmaceutical Co., Ltd.) was increased to 9 mg/day after the 4th week of the 9th month, and further increased to 12 mg/day after the 4th week of the 10th month, the NRS value was 0, and no change was observed.

Where a name gives a salt, the structure may show the parent alone.

For `O=C1CCc2ccc(OCCCCN3CCN(c4cccc(Cl)c4Cl)CC3)cc2N1` [aripiprazole, 7-{4-[4-(2,3-dichlorophenyl)-1-piperazinyl]butoxy}-3,4-dihydrocarbostyril], the “Effect on pain of the chronic pain patient (in words)” value is given as “could dramatically reduce the pain”. This compound also yielded an NRS value (aripiprazole 3 mg/day oral from 4th week of 4th month, first week of the 5th month) of 1. Besides, where the note is “aripiprazole 3 mg/day oral, from the second week of the 6th month”, the NRS value turned out to be 0. Under “aripiprazole increased to 9 mg/day (after 4th week of 9th month) and 12 mg/day (after 4th week of 10th month)”, the NRS value turned out to be 0. Also, the NRS value (aripiprazole, after morphine was stopped from the 8th month) came out at 0.
As to `COCCCC/C(=N\OCCN)c1ccc(C(F)(F)F)cc1` [fluvoxamine], the “Effect on pain of the chronic pain patient (in words)” value was “the pain was not relieved at all”.
The same measure, in the same setting: with `CN1CC[C@]23c4c5ccc(O)c4O[C@H]2[C@@H](O)C=C[C@H]3[C@H]1C5` [morphine hydrochloride tablets] the entry was “the pain was not relieved”.
